This is an account of results in patent US7419980B2, “Fused-aryl and heteroaryl derivatives and methods of their use” (Wyeth, priority 2003, dated 2008).

Structures can show the parent of a compound that is named as a salt.

What is called inhibition is the relative decrease from the control value, in per cent.

In the first assay the target is T1, human hNET (Homo sapiens, UniProt P23975).
T1 construct: expressed in transfected cells; host or cells: MDCK-Net6 (MDCK cells stably transfected with hNET)
T1 sequence (P23975 whole entry): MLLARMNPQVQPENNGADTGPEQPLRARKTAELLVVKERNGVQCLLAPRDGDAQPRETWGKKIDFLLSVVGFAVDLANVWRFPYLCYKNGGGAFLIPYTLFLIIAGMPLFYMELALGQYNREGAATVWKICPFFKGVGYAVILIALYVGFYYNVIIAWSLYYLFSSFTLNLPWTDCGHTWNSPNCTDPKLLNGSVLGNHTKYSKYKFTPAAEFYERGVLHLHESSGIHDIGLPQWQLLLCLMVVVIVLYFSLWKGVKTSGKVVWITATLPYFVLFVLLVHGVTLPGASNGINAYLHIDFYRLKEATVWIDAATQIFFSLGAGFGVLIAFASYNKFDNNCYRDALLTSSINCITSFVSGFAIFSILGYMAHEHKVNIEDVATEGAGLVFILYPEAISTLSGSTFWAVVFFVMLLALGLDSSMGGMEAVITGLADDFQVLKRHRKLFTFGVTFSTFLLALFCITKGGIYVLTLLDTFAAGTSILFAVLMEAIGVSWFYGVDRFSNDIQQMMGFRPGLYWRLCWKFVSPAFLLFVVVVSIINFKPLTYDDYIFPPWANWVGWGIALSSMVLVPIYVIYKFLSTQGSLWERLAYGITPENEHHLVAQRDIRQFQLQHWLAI
The experiment in a line: Norepinephrine (NE) uptake assay in MDCK-Net6 cells. Type of assay: cell-based. Conditions: 1 μM test compound; [3H]NE uptake, MDCK-Net6 cells; read-out: % Inhibition @ 1 μM (hNET). The method, then: MDCK-Net6 cells, stably transfected with human hNET (Pacholczyk, T., R. D. Blakely, and S. G. Amara, Nature, 1991, 350(6316): p. 350-4) were cultured in growth medium containing high glucose DMEM (Gibco, Cat. No. 11995), 10% FBS (dialyzed, heat-inactivated, US Bio-Technologies, Lot FBD1129HI) and 500 μg/ml G418 (Gibco, Cat. No. 10131). Cells were plated at 300,000/T75 flask and cells were split twice weekly. The JAR cell line (human placental choriocarcinoma) was purchased from ATCC (Cat. No. HTB-144). The cells were cultured in growth medium containing RPMI 1640 (Gibco, Cat. No. 72400), 10% FBS (Irvine, Cat. No. 3000), 1% sodium pyruvate (Gibco, Cat. No. 1136) and 0.25% glucose. Cells were plated at 250,000 cells/T75 flask and split twice weekly. For all assays, cells were plated in Wallac 96-well sterile plates (PerkinElmer, Cat. No. 3983498).
On day 1, cells were plated at 3,000 cells/well in growth medium and maintained in a cell incubator (37° C., 5% CO2). On day 2, growth medium was replaced with 200 μl of assay buffer (25 mM HEPES; 120 mM NaCl; 5 mM KCl; 2.5 mM CaCl2; 1.2 mM MgSO4; 2 mg/ml glucose (pH 7.4, 37° C.)) containing 0.2 mg/ml ascorbic acid and 10 μM pargyline. Plates containing cells with 200 μl of assay buffer were equilibrated for 10 minutes at 37° C. prior to addition of compounds. A stock solution of desipramine was prepared in DMSO (10 mM) and delivered to triplicate wells containing cells for a final tert concentration of 1 μM. Data from these wells were used to define non-specific NE uptake (minimum NE uptake). Test compounds were prepared in DMSO (10 mM) and diluted in assay buffer according to tert range (1 to 10,000 nM). Twenty-five microliters of assay buffer (maximum NE uptake) or tert compound were added directly to triplicate wells containing cells in 200 μl of assay buffer. The cells in assay buffer with tert compounds were incubated for 20 minutes at 37° C. To initiate the NE uptake, [^3H]NE diluted in assay buffer (120 nM final assay concentration) was delivered in 25 μl aliquots to each well and the plates were incubated for 5 minutes (37° C.). The reaction was terminated by decanting the supernatant from the plate. The plates containing cells were washed twice with 200 μl assay buffer (37° C.) to remove free radioligand. The plates were then inverted, left to dry for 2 minutes, then reinverted and air-dried for an additional 10 minutes. The cells were lysed in 25 μl of 0.25 N NaOH solution (4° C.), placed on a shake table and vigorously shaken for 5 minutes. After cell lysis, 75 μl of scintillation cocktail was added to each well and the plates were sealed with film tape. The plates were returned to the shake table and vigorously shaken for a minimum of 10 minutes to ensure adequate partitioning of organic and aqueous solutions. The plates were counted in a Wallac Microbeta counter (PerkinElmer) to collect the raw cpm data.
For each experiment, a data stream of cpm values collected from the Wallac Microbeta counter was downloaded to a Microsoft Excel statistical application program. Calculations of EC50 values were made using the transformed-both-sides logistic dose response program written by Wyeth Biometrics Department. The statistical program uses mean cpm values from wells representing maximum binding or uptake (assay buffer) and mean cpm values from wells representing minimum binding or uptake ((1 μM desipramine (hNET) or 1 μM paroxetine (hSERT)). Estimation of the EC50 value was completed on a log scale and the line was fit between the maximum and minimum binding or uptake values. All graphic data representation was generated by normalizing each data point to a mean percent based on the maximum and minimum binding or uptake values. The EC50 values reported from multiple experiments were calculated by pooling the raw data from each experiment and analyzing the pooled data as one experiment.
For `OC1(C(CN2CCNCC2)c2csc3ccc(Cl)cc23)CCCCC1` (stereo not shown) [Example 260, 1-[1-(5-chloro-1-benzothien-3-yl)-2-piperazin-1-ylethyl]cyclohexanol Dihydrochloride], the inhibition at 1 µM amounted to 75%.

`OC1(C(CN2CCNCC2)c2cc3ccccc3s2)CCCCC1` (stereo not shown) [Example 261, 1-[1-(1-benzothien-2-yl)-2-piperazin-1-ylethyl]cyclohexanoldihydrochloride]: the inhibition at 1 µM is 60%.

Turning to `OC1(C(CN2CCNCC2)c2cnc3ccccc3c2)CCCCC1` (stereo not shown) [Example 262, 1-(2-piperazin-1-yl-1-quinolin-3-ylethyl)cyclohexanol Dihydrochloride], the inhibition at 1 µM stood at 19%.

Turning to `OC1(C(CN2CCNCC2)c2cccc3ccccc23)CCCCCCC1` (stereo not shown) [Example 269, 1-[1-(1-naphthyl)-2-piperazin-1-ylethyl]cyclooctanol Dihydrochloride], the inhibition at 1 µM came to 41%.

In the case of `CN1CCN(CC(c2cccc3ccccc23)C2(O)CCCCCCC2)CC1` (stereo not shown) [Example 270, 1-[2-(4-methylpiperazin-1-yl-1-(1-naphthyl)ethyl]cyclooctanol Dihydrochloride], the inhibition at 1 µM amounted to 13%.

As for `OC1(C(CN2CCNCC2)c2cccc3ccccc23)CCCCCC1` (stereo not shown) [Example 271, 1-[1-(1-naphthyl)-2-piperazin-1-ylethyl]cycloheptanol Dihydrochloride], the inhibition at 1 µM is 27%.

`CN1CCN(CC(c2cccc3ccccc23)C2(O)CCCCCC2)CC1` (stereo not shown) [Example 272, 1-[2-(4-methylpiperazin-1-yl)-1-(1-naphthyl)ethyl]cycloheptanol Dihydrochloride]: the inhibition at 1 µM is 44%.

As to `COc1ccc2scc(C(CN3CCNCC3)C3(O)CCCCC3)c2c1` (stereo not shown) [Example 279, 1-[1-(5-methoxy-1-benzothien-3-yl)-2-piperazin-1-ylethyl]cyclohexanol Dihydrochloride], the inhibition at 1 µM was determined as 16%.

Regarding `OC1(C(CN2CCNCC2)c2cc(Br)cs2)CCCCC1` (stereo not shown) [Example 281, 1-[1-(4-bromothien-2-yl)-2-piperazin-1-ylethyl]cyclohexanol Dihydrochloride], the inhibition at 1 µM turned out to be 91%.

Regarding `CCC1CCC(O)(C(CN2CCN(C)CC2)c2cccc3ccccc23)CC1` (stereo not shown) [Example 328, 4-ethyl-1-[2-(4-methylpiperazin-1-yl)-1-(1-naphthyl)ethyl]cyclohexanol Dihydrochloride], the inhibition at 1 µM stood at 5.1%.

In the case of `CC1CCC(O)(C(CN2CCN(C)CC2)c2cccc3ccccc23)CC1` (stereo not shown) [Example 333, 4-methyl-1-[2-(4-methylpiperazin-1-yl)-1-(1-naphthyl)ethyl]cyclohexanol Dihydrochloride], the inhibition at 1 µM turned out to be 16%.

On to `OC1(C(CN2CCNCC2)c2cccnc2)CCCCC1` (stereo not shown) [Example 337, 1-(2-piperazin-1-yl-1-pyridin-3-ylethyl)cyclohexanol Trihydrochloride], for which the inhibition at 1 µM worked out at 4.8%.

The assay is the same for the next values; noted with them: MDCK-Net6, read-out: % Inhibition @ 1 μM (hNET).
`CN1CCN(C[C@H](c2csc(Cl)c2)C2(O)CCCCC2)CC1` [Example 259, 1-[(1S)-1-(5-chlorothien-3-yl)-2-(4-methylpiperazin-1-yl)ethyl]cyclohexanol Dihydrochloride]: the inhibition at 1 µM turned out to be 20%.
